Ki data for 20 molecules are collected here from ChEMBL document CHEMBL1132862, “Structure-activity and crystallographic analysis of a new class of non-amide-based thrombin inhibitor” (Bioorg Med Chem Lett, 2000).

This experiment concerns the target Prothrombin (Homo sapiens, UniProt P00734). The experiment can be described thus: Anti- Thrombin activity using standard chromogenic assay.

By Ki is commonly meant the equilibrium dissociation constant of an inhibitor or competing ligand from its target. In turn, `Cc1cc(OCC2CCN(C(=N)N)CC2)cc(OS(=O)(=O)c2cccc(C)c2)c1` displayed a Ki of 36 nM.

For `N=C(N)N1CCC(COc2cc(CO)cc(OS(=O)(=O)c3ccccc3Cl)c2)CC1`, the affinity, expressed as Ki, was 490 nM. `Cc1cc(OCC2CCN(C(=N)N)CC2)cc(OS(=O)(=O)c2ccccc2C(F)(F)F)c1` had a Ki of 14 nM. Then `Cc1cc(OCC2CCN(C(=N)N)CC2)cc(OS(=O)(=O)c2cccc(N)c2)c1`, with 32 nM. The molecule `COc1cc(OCC2CCN(C(=N)N)CC2)cc(OS(=O)(=O)c2ccccc2Cl)c1` yielded a Ki of 44 nM. Consider `N=C(N)N1CCC(COc2cccc(OS(=O)(=O)c3ccccc3Cl)c2)CC1`, for which affinity was put at a Ki of 190 nM. For `Cc1cc(OCC2CCN(C(=N)N)CC2)cc(OS(=O)(=O)c2ccc(N)cc2)c1`, the inhibition constant Ki came to 399 nM.

As to `Cc1cc(OCC2CC[N+](=C([NH-])N)CC2)cc(OS(=O)(=O)c2cccc([N+](=O)[O-])c2)c1` (stereo not given), the Ki amounted to 115 nM. Molecule `COC(=O)c1ccccc1S(=O)(=O)Oc1cc(C)cc(OCC2CCN(C(=N)N)CC2)c1` registered a Ki of 28 nM. As to `Cc1cc(OCC2CC[N+](=C([NH-])N)CC2)cc(OS(=O)(=O)c2ccc([N+](=O)[O-])cc2)c1` (stereo not given), the Ki is 327 nM. Next, `COC(=O)c1cc(OCC2CCN(C(=N)N)CC2)cc(OS(=O)(=O)c2ccccc2Cl)c1`: 3700 nM; `Cc1cc(OCC2CCN(C(=N)N)CC2)cc(OS(=O)(=O)c2cccc(C(F)(F)F)c2)c1`: 445 nM. Consider `Cc1cc(OCC2CCN(C(=N)N)CC2)cc(OS(=O)(=O)c2cccc(Cl)c2Cl)c1`, for which affinity was put at a Ki of 22 nM. As for `N=C(N)N1CCC(COc2cc(Cl)cc(OS(=O)(=O)c3ccccc3Cl)c2)CC1`, the affinity, expressed as Ki, was 30 nM. `Cc1cc(OCC2CC[N+](=C([NH-])N)CC2)cc(OS(=O)(=O)c2ccccc2[N+](=O)[O-])c1` (stereo not given) gave a Ki of 16 nM. For `CCc1cc(OCC2CCN(C(=N)N)CC2)cc(OS(=O)(=O)c2ccccc2Cl)c1`, affinity was put at a Ki of 39 nM.

Molecule `Cc1cc(OCC2CCN(C(=N)N)CC2)cc(OS(=O)(=O)c2cccc(Cl)c2)c1` gave a Ki of 39 nM.

`Cc1cc(OCC2CCN(C(=N)N)CC2)cc(OS(=O)(=O)c2ccccc2N)c1` showed a Ki of 52 nM. Consider `Cc1cc(OCC2CCN(C(=N)N)CC2)cc(OS(=O)(=O)c2cccc3ccccc23)c1`, for which the Ki came out at 35 nM. The molecule `Cc1cc(OCC2CCN(C(=N)N)CC2)cc(OS(=O)(=O)c2ccccc2)c1` displayed a Ki of 32 nM.
